Test results taken from US20240366560A1, “SMALL MOLECULE TREATMENT OF FATTY LIVER DISEASE AND HCC” (ScandiEdge Therapeutics AB, priority 2021, published 2024).

How the values were obtained:
[1] = tested on: PKLR; assay: PKLR protein level by western blot in HepG2, 2-day drug treatment; assay type: cell-based; conditions: HepG2, two days of treatment, dosages per FIG. 5, P<0.05, FIG. 2A
Protocol: WT HepG2 was included in this study and cultured by Roswell Park Memorial Institute (RPMI, […], Sigma Aldrich) 1640 Medium with 10% fetal bovine serum (FBS) and 1% penicillin-streptomycin (PS). To induce a steatosis model into WT HepG2 cells, high glucose Dulbecco's Modified Eagle Media (DMEM, […]/[…], Sigma-Aldrich) containing 10% FBS and 1% PS was used as medium for one week, together with 10 μg/mL insulin and 10 μM T0901317. All of cells were incubated in the incubator with 5% CO2 and 37° C. (Thermo […]). Fresh medium was provided every two days. As for drug-screening, different numbers of HepG2 cells were seeded for distinct experiments. More in details, 40,000 cells and 500,000 cells were used for 2-day-drug treatment in 96-well-plate and 6-well plate, respectively, while 80,000 cells and 300,000 cells were used for one-week drug treatment in 96-well plate and 6-well plate, respectively. […] Fresh medium was provided every two days. Protein content levels were detected by western blot. After the respective treatment of drugs, the cell pellets were lysed in cell lytic M, followed by protein extraction from supernatant (10 min, 13,000r/min centrifuge). Extracted cell lysate was stored in -20° C. Proteins were quantified through Bovine albumin serum (BAS) standard curve with protein assay dye reagent (BIO-RAD). The proteins were separated by SDS-PAGE with 100v in 90 min by mini-protein TGX precast gels (4-15%, 15 wells, 15 μl/well, BIO-RAD), and then transfer to Mini PVDF transfer package through transfer system (Transfer-Turbo, BIO-RAD). After 30 min blocking with 5% skim milk in cold room (4° C.) and washing with TBST, membrane was cut by the size of interested proteins. Primary antibodies were added into the corresponding membrane sections for overnight binding. Then the membranes were washed with TBST, and the secondary antibodies were incubated for 1 h in cold room. The following antibody were used: (Goat pAb to Rb lg, ab205718, abcam; Rb pAb to beta-actin, ab8227, abcam; […]; Rb pAb to fatty acid synthase, ab99539, abcam). The bindings were imaged by immunostaining and machine (ImageQuant LAS 500). All antibodies were purchased from Abcam online, and βactin was used as global normalized protein. After measurement, the strength of signal for each protein was quantified by ImageJ. The background noise was removed, and all results were normalized by the levels of β-actin. To determine the inhibitory effects of these drugs on the expression level of PKLR, HepG2 was selected as the in vitro model for coherence. […] HepG2 cells were treated with these drugs for two days with different dosages due to their potential cellular toxicities (FIG. 5), and the PKLR protein level was the measured by western blotting. The level of protein expression of PKLR of the drug-treated groups was compared to that of the Ctrl group after normalizing with β-actin.

[2] = tested on: Sprague Dawley male rats; assay: In vivo biosafety study: immunohistochemical 8-OH-dG examination of liver; design: species or system rat; conditions: 30 mg/kg oral, 7 days, CHOW
Protocol: In vivo biosafety studies. Healthy Sprague Dawley male rats (12 weeks old, 250-280 g) were obtained from Atatürk University Experimental Research Center (ATADEM, Erzurum Turkey) and housed under standard environmental conditions (temperature 20° C.-25° C., humidity 50±20% and 12-hour light/dark diurnal cycle). Food and water were available ad libitum. Rats were randomly separated into one control group and two experimental groups (30 mg/kg/day BX-912 or JNK-IN-5A, n=5). BX-912 and JNK-IN-5A were dissolved in DMSO and orally administrated using oral gavage for 7 days. The control group were received the same amount of vehicle solution only.
After 7 days, rats were anaesthetized, and blood samples were collected from the abdominal aorta for biochemical and haematological analysis. The plasma was separated and stored at −80° C. for further analysis. Major organs such as heart, kidney, liver, muscle, adipose, intestine (duodenum, ileum, jejunum), pancreas, colon, and stomach were collected from all the animals for further analysis. Selected organs were fixed in 10% neutral buffered formalin for histopathological examination.
Immunohistochemical examination. After deparaffinization, the slides were immersed in antigen retrieval solution (pH 6.0) and heated in microwave for 15 min to unmask the antigens. The sections were then dipped in 3% H2O2 for 10 min to block endogenous peroxidase activity. […]

[3] = tested on: HepG2 cells; assay: MTT assay of liver cancer cell viability; assay type: cell-based; conditions: HepG2, 10 μM, two days, FIG. 4
Protocol: HepG2 cells were seeded into a 96 well plate at 20,000 cells per well as hexaplicated. Next day, treatment of the cells with 10 μM drugs (BX-912 and JNK-IN-5A) was started. The treatment lasted for two days. Cell viability was measured using MTT assay. Cells were incubated with 5 mg/ml MTT 3-4 5-DIMETHYLTHIAZ ([…] Thermo fisher) in PBS for 2 h. Microplate reader measured cell viability O.D at 570 nm.

[4] = tested on: Pklr; assay: In vivo efficacy study in rats: hepatic Pklr expression; conditions: rat animal study
Protocol: In vivo efficacy studies. […] The HSD group were treated with vehicle solution only.

SMILES | protein expression of PKLR vs Ctrl, normalized with β-actin [1] | 8-OH-dG expression in liver tissues (IHC) [2] | viability of liver cancer cells in the MTT assay [3] | hepatic Pklr expression in vivo [4]
O=C(Nc1cccc(Nc2ncc(Br)c(NCCc3cnc[nH]3)n2)c1)N1CCCC1 [BX-912, N-[3-[[5-bromo-4-[[2-(1H-imidazol-5-yl)ethyl]amino]-2-pyrimidinyl]amino]phenyl]-1-pyrrolidinecarboxamide] | significantly down-regulated | negative | significantly reduced | significantly decreased
N#Cc1c(NC(=O)c2cccc3ccccc23)sc2c1CCCC2 [JNK-IN-5A, N-(3-cyano-4,5,6,7-tetrahydrobenzo [b]thien-2-yl)-1-naphthalenecarboxamide] | significantly down-regulated | negative | significantly reduced | significantly decreased
